We go through five molecules from patent US10213464B2, “Method for enhancing engraftment of haematopoetic stem cells” (SCIPHARM SARL, priority 2011, dated 2019).

In experiment [1] the test system is (Lin−, c-Kit+, Sca-1+) haematopoetic stem cells. The experiment in a line: [3H]cAMP accumulation assay in haematopoetic stem cells. Format: cell-based, mouse. The following applies: for cAMP accumulation, compound per se: without forskolin, FIG. 4, FIG. 5. The procedure:
Ten mice (C57BL/6) were sacrificed by cervical dislocation. The long bones of the hind limbs (i.e., femora and tibiae) were freed of muscle and connective tissue and flushed with RPMI medium using a syringe and 27½ G needle. The cell suspension was freed from visible connective tissue, collected and transferred to centrifuge tubes. Cells were harvested by centrifugation (1,200 rpm/˜100 g for 5 min) and resuspended in 3 mL erythrocyte lysis buffer (0.15 M NH4Cl, 10 mM KHCO3, 0.1 mM EDTA, pH adjusted to 7.2 to 7.4). The cell suspension was incubated for 2 min at 20° C. followed by 4 min on ice. Thereafter, RPMI (10 mL) was added and the cells were harvested by centrifugation and counted. […] Cells were resuspended in ice-cold PBS (phosphate buffered saline) containing 2% FCS (fetal calf serum) at a cell density of 2.5*10^8 cells/mL to which a cocktail of biotinylated antibodies (“Lineage Cell Depletion Kit” of Miltenyi Biotec) containing lineage-specific antibodies directed against CD5, CD45R (B220), CD11b, GR-1 (=Ly-6G/C), 7-4, and Ter-119 at a ratio of 0.1 mL antibody solution per 10^8 cells. Cells were incubated for 20 min on ice with the antibodies and pelleted by centrifugation. […] Thereafter, the sample was diluted in MACS-buffer (30 mL), the cells were collected by centrifugation and resuspended in 6 mL of MACS-buffer. This suspension was loaded onto prepacked LS columns, which contain ferromagnetic beads coated with a cell-compatible plastic material. Typically three columns were employed for (2 mL cells suspension/column). The flow-through contained the lineage marker-negative cells (Lin^− cells), while the lineage committed cells were retained on the column. Cells were pelleted by centrifugation and resuspended in […]. Lin^−/sca1^+-cells were incubated in 1 mL of stem cell medium (Stem Span SFEM, Stem Cell Tech #09650) containing 0.5 mg/L each, benzylpenicillin and streptomycin, 50 ng/mL each murine stem cell factor (mSCF), human Flt-3, hIL-11 50 ng/mL, m-IL3 (10 ng/mL) (all from PreProTech) 10 μg/mL adenosine deaminase (Roche) and [^3H]adenine (Perkin Elmer, 1 μCi/mL). The preincubation lasted for 4 h at 37° C. […] The cells were then pelleted (5 min at 100 g), the medium was removed and the pellet was lysed in ice-cold 2.5% perchloric acid (0.9 mL) containing 0.1 mM cAMP, held on ice for 1 h and neutralized with 4.2 M KOH (0.1 mL)). Lineage marker-positive cells were preincubated in a similar manner but the medium contained RMPI instead of serum-free stem cell medium. ATP and cAMP were separated by sequential chromatography on columns containing Dowex AG50-X8 and neutral alumina (12). The fact that differences can only be seen in the presence of forskolin is a technical problem—the signal is too low in the absence of forskolin-sensitization to see any differences between the different compounds, i.e. ilo-, beraprost and treprostinil. Sensitization means that cells are sensitized for receptor response as these cells contain extremely low cAMP.
For orientation: Changes in cAMP serve as a functional read-out for many G protein-coupled receptors.

The target in another experiment is EP4-receptors (Homo sapiens, UniProt P35408). The following applies: reference 10; cited from earlier work.
The next experiment has as its target T1, EP3-receptors (Homo sapiens, UniProt P43115).
T1 sequence (P43115 1-390): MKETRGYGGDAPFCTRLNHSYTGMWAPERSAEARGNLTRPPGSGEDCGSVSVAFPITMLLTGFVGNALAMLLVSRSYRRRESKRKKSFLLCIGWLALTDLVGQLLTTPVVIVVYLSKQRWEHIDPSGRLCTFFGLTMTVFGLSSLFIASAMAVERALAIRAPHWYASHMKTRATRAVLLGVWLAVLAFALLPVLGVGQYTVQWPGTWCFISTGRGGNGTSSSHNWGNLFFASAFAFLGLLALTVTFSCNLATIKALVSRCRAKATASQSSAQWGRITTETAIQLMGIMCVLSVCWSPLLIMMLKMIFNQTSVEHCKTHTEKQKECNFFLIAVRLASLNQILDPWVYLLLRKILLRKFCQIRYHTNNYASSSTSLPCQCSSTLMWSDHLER
The conditions noted are these: Gi-coupled, inhibit cAMP accumulation; cited from earlier work.

For experiment [2], the system named is Lin− (Sca1+ and c-Kit+) haematopoetic stem cells. Nature of the experiment: Bone marrow transplantation: reconstitution of bone marrow in lethally irradiated mice by ex vivo pretreated stem cells. The conditions noted are these: FIG. 6.
For a further experiment, the target named is EP2-receptors (Homo sapiens, UniProt P43116). The conditions noted are these: reference 10; cited from earlier work.
Experiment [3] concerns Lin+ haematopoetic cell fraction. Nature of the experiment: [3H]cAMP accumulation assay in lineage marker-positive cells. It counts as cell-based, mouse. The conditions noted are these: data not shown. The procedure:
Ten mice (C57BL/6) were sacrificed by cervical dislocation. The long bones of the hind limbs (i.e., femora and tibiae) were freed of muscle and connective tissue and flushed with RPMI medium using a syringe and 27½ G needle. The cell suspension was freed from visible connective tissue, collected and transferred to centrifuge tubes. Cells were harvested by centrifugation (1,200 rpm/˜100 g for 5 min) and resuspended in 3 mL erythrocyte lysis buffer (0.15 M NH4Cl, 10 mM KHCO3, 0.1 mM EDTA, pH adjusted to 7.2 to 7.4). The cell suspension was incubated for 2 min at 20° C. followed by 4 min on ice. Thereafter, RPMI (10 mL) was added and the cells were harvested by centrifugation and counted. The typical yield of cells was 3*10^7/mouse. Cells were resuspended in ice-cold PBS (phosphate buffered saline) containing 2% FCS (fetal calf serum) at a cell density of 2.5*10^8 cells/mL to which a cocktail of biotinylated antibodies (“Lineage Cell Depletion Kit” of Miltenyi Biotec) containing lineage-specific antibodies directed against CD5, CD45R (B220), CD11b, GR-1 (=Ly-6G/C), 7-4, and Ter-119 at a ratio of 0.1 mL antibody solution per 10^8 cells. Cells were incubated for 20 min on ice with the antibodies and pelleted by centrifugation. […]

The test system of experiment [4] is haematopoetic stem cells. The following applies: references 7, 8; cited from earlier work.
The subject of experiment [5] is haematopoetic stem cells. The conditions noted are these: in vivo; cited from earlier work.

Sequence of EP4-receptors (P35408 whole entry): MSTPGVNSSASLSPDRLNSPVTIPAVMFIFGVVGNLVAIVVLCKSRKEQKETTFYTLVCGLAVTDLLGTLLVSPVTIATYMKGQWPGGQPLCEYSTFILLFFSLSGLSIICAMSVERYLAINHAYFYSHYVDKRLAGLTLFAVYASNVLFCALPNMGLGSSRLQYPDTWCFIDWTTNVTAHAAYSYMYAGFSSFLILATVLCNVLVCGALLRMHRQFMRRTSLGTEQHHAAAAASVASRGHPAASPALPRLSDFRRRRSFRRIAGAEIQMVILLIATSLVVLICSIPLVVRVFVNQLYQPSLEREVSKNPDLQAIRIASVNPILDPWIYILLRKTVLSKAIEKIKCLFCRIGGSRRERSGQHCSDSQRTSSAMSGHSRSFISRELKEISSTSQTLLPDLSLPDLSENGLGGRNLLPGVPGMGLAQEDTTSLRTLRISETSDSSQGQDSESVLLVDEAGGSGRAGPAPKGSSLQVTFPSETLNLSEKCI
Sequence of EP2-receptors (P43116 whole entry): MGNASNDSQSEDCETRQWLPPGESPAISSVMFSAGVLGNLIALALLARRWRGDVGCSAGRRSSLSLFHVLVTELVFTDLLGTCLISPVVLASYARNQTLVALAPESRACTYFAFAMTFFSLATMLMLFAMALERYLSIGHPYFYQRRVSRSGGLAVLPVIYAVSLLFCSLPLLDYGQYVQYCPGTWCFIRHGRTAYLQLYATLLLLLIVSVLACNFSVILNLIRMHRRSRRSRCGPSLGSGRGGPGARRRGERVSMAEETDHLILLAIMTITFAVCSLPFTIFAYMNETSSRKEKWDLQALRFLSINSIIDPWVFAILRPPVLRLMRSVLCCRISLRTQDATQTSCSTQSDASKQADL

With `CC#CCC(C)C(O)C=CC1C(O)CC2Oc3c(CCCC(=O)O)cccc3C21` (stereo not shown) [Beraprost, 2,3,3a,8b-tetrahydro-2-hydroxy-1-(3-hydroxy-4-methyl-1-octen-6-ynyl)-1H-cyclopenta(b)benzofuran-5-butanoic acid], the “cAMP accumulation, compound per se” value in experiment [1] (stimulation 1 h) is listed as “modest accumulation of cAMP”.

For the molecule `CC#CCC(C)[C@H](O)/C=C/[C@@H]1[C@H]2C/C(=C/CCCC(=O)O)C[C@H]2C[C@H]1O` (stereo partly drawn) [Iloprost, 5-{(E)-(1S,5S,6R,7R)-7-hydroxy-6[(E)-(3S, 4RS)-3-hydroxy-4-methyl-1-octen-6-inyl]-bi-cyclo[3.3.0]octan-3-ylidene}pentanoic acid], the “cAMP accumulation, compound per se” value in experiment [1] (stimulation 1 h) is on record as “modest accumulation of cAMP”.

Turning to `CCCCC[C@H](O)CC[C@@H]1[C@H]2Cc3cccc(OCC(=O)[O-])c3C[C@H]2C[C@H]1O.[Na+]` [Treprostinil, (1R,2R,3aS,9aS)-[[2,3,3a,4,9,9a-hexahydro-2-hydroxy-1-[(3S)-3-hydroxyoctyl]-1H-benz[f]inden-5-yl]oxy]acetic acid monosodium salt], the “stimulation of EP4-receptors” value on EP4-receptors is on record as “stimulates”. For the same molecule, the “agonism at EP3-receptors” value on EP3-receptors was “low affinity agonist”. The “level of circulating white blood cells” value in experiment [2] (day 60 after injection of 3*10^5 cells pretreated ex vivo with 10 μM for 1 h at 37° C., versus vehicle-treated cells) is given as “significantly higher levels of circulating white blood cells”. For the same molecule, the “effectiveness compared with positive control cholera toxin” value in experiment [2] (ex vivo pretreatment, white blood cell count) is “as effective as the positive control cholera toxin”. Also, the “stimulation of EP2-receptors” value at EP2-receptors is “stimulates”. Moreover, in experiment [3], the “cAMP levels in Lin+ cells” value is recorded as “failed to increase cAMP levels”. In addition, in experiment [1] (FIG. 5), the “concentration range of concentration-dependent accumulation of cAMP” value was 0.1 to 10 µM. Also, the EC50 – broadly, the concentration at which the effect is half-maximal – in experiment [1] (Mus musculus, concentration-response curve, FIG. 5, read-out: estimated EC50 of cAMP accumulation) is roughly 300 nM. Besides, in experiment [1] (combined with forskolin, stimulation 1 h, FIG. 4), the “increase in cAMP levels when combined with forskolin” value is “exceeded that caused by the IP-(I prostanoid) receptor-specific compounds Iloprost and Beraprost”. Besides, the “cAMP accumulation, compound per se” value is “increase of cAMP is significant” in experiment [1] (stimulation 1 h, listed as Trepostinil, monosodium salt) and “modest accumulation of cAMP” in experiment [1] (stimulation 1 h, monosodium salt).

With `CCCCC(C)(C)[C@H](O)/C=C/[C@H]1[C@H](O)CC(=O)[C@@H]1C/C=C\CCCC(=O)O` [dimethyl-PGE2], the “agonism at EP3-receptors” value at EP3-receptors was “full agonist”. The engraftment after pretreatment result in the experiment on haematopoetic stem cells [4] is on record as “enhances their engraftment”.

With cholera toxin, the “(Lin−) precursor cells in the bone marrow after pretreatment” value in the experiment with haematopoetic stem cells [5] is “about twice as many”.
